Assay results: ChEMBL document CHEMBL5528028, “Discovery of benzopyridone cyanoacetates as new type of potential broad-spectrum antibacterial candidates” (Eur J Med Chem, 2024)
Converted amounts (≈) assume the structure as drawn. The source made the active and inactive calls. The calls are words filed in the database; no cut-off is given here.

Legend:
[1] = test system: Klebsiella pneumoniae; experiment: Induction of ROS generation in Klebsiella pneumonia assessed as increase in fluorescence intensity by DCFH-DA based microscopic analysis; format: functional, organism-based
[2] = test system: Cell membrane; experiment: Induction of inner membrane permeability in Staphylococcus aureus ATCC 29213 assessed as increase in fluorescence intensity by propidium iodide uptake based microscopic imaging assay; format: cell membranes
[3] = test system: Staphylococcus aureus; experiment: Induction of resistance development in Staphylococcus aureus ATCC 29213 assessed as after 20 passages measured upto 4.5 times of MIC; format: functional
[4] = test system: Staphylococcus aureus; experiment: Antibacterial activity against Staphylococcus aureus ATCC 29213 assessed as decrease in relative metabolic activity at 4 times of MIC by Alamar Blue assays; format: functional, organism-based
[5] = test system: Staphylococcus aureus; experiment: Induction of ROS generation in Staphylococcus aureus ATCC 29213 assessed as loss of GSH activity by Ellmans method; format: functional, organism-based
[6] = test system: Cell membrane; experiment: Induction of outer membrane permeability in Klebsiella pneumonia assessed as increase in fluorescence intensity at 2 times of MIC by N-phenyl naphthylamine (NPN) dye based assay; format: cell membranes; settings: Klebsiella pneumoniae
[7] = test system: Cell membrane; experiment: Induction of disruption of membrane integrity in Klebsiella pneumonia assessed as leakage of intracellular proteins by Acid Blue 90 based assay; format: cell membranes; settings: Klebsiella pneumoniae
[8] = test system: Cell membrane; experiment: Induction of inner membrane permeability in Klebsiella pneumonia assessed as increase in fluorescence intensity by propidium iodide uptake based microscopic imaging assay; format: cell membranes; settings: Klebsiella pneumoniae
[9] = test system: Klebsiella pneumoniae; experiment: Anti-biofilm activity against Klebsiella pneumonia assessed as relative biofilm clearance rate by crystal violet staining based assay; format: functional, organism-based
[10] = test system: Calf thymus DNA; experiment: Induction of calf thymus DNA double helix loss assessed as reduction in fluorescence intensity at 525 nm wavelength by acridine orange competition based assay; format: nucleic-acid assay; settings: Bos taurus
[11] = test system: Klebsiella pneumoniae; experiment: Bactericidal activity against Klebsiella pneumonia assessed as time dependent killing at 4 times of MIC measured at 8 hrs; format: functional, organism-based
[12] = test system: Klebsiella pneumoniae; experiment: Antibacterial activity against Klebsiella pneumonia assessed as decrease in relative metabolic activity at 4 times of MIC by Alamar Blue assays; format: functional, organism-based
[13] = test system: Calf thymus DNA; experiment: Binding affinity to calf thymus DNA assessed as change in absorption measuring hyperchromism by UV-Vis absorption spectra analysis; format: nucleic-acid assay; settings: Bos taurus
[14] = test system: Cell membrane; experiment: Induction of cytoplasmic membrane depolarization in Klebsiella pneumonia assessed as increase in fluorescence intensity at 2 times of MIC measured upto 40 mins by DiSC35 dye based fluorescence method; format: cell membranes; settings: Klebsiella pneumoniae
[15] = test system: Cell membrane; experiment: Induction of disruption of membrane integrity in Staphylococcus aureus ATCC 29213 assessed as leakage of intracellular proteins by Acid Blue 90 based assay; format: cell membranes
[16] = test system: Staphylococcus aureus; experiment: Anti-biofilm activity against Staphylococcus aureus ATCC 29213 assessed as relative biofilm clearance rate by crystal violet staining based assay; format: functional, organism-based
[17] = test system: Staphylococcus aureus; experiment: Bactericidal activity against Staphylococcus aureus ATCC 29213 assessed as time dependent killing at 4 times of MIC measured at 8 hrs; format: functional, organism-based
[18] = test system: Klebsiella pneumoniae; experiment: Induction of resistance development in Klebsiella pneumonia assessed as after 20 passages measured upto 4.5 times of MIC; format: functional
[19] = test system: Cell membrane; experiment: Induction of cytoplasmic membrane depolarization in Staphylococcus aureus ATCC 29213 assessed as increase in fluorescence intensity at 2 times of MIC measured upto 40 mins by DiSC35 dye based fluorescence method; format: cell membranes
[20] = test system: Staphylococcus aureus; experiment: Induction of ROS generation in Staphylococcus aureus ATCC 29213 assessed as increase in fluorescence intensity by DCFH-DA based microscopic analysis; format: functional, organism-based
[21] = test system: Klebsiella pneumoniae; experiment: Induction of ROS generation in Klebsiella pneumonia assessed as loss of GSH activity by Ellmans method; format: functional, organism-based
[22] = test system: Erythrocyte; experiment: Hemolytic activity in human RBC incubated measured upto 128 ug/ml; format: toxicity, cell-based; settings: dose < 128 µg/ml
[23] = test system: Staphylococcus aureus; experiment: Antibacterial activity against Staphylococcus aureus ATCC 29213 assessed growth inhibition by micro broth dilution method; format: functional
[24] = test system: Klebsiella pneumoniae; experiment: Antibacterial activity against Klebsiella pneumonia assessed growth inhibition by micro broth dilution method; format: functional
[25] = Cytotoxicity against human NOK cells assessed as cell viability at 8 ug/ml; format: toxicity, cell-based; settings: nok-si, dose 8 µg/ml
[26] = test system: Escherichia coli; experiment: Antibacterial activity against Escherichia coli assessed growth inhibition by micro broth dilution method; format: functional
[27] = test system: Staphylococcus aureus; experiment: Antibacterial activity against Staphylococcus aureus ATCC 25923 assessed growth inhibition by micro broth dilution method; format: functional
[28] = test system: Staphylococcus aureus; experiment: Antibacterial activity against Staphylococcus aureus assessed growth inhibition by micro broth dilution method; format: functional
[29] = test system: Escherichia coli; experiment: Antibacterial activity against Escherichia coli ATCC 25922 assessed growth inhibition by micro broth dilution method; format: functional
[30] = test system: Enterococcus faecalis; experiment: Antibacterial activity against Enterococcus faecalis assessed growth inhibition by micro broth dilution method; format: functional
[31] = Cytotoxicity against human FHC cells assessed as cell viability at 8 ug/ml; format: toxicity, cell-based; settings: at 8 µg/mL, read-out: Activity
[32] = test system: Acinetobacter baumannii; experiment: Antibacterial activity against Acinetobacter baumannii assessed growth inhibition by micro broth dilution method; format: functional
[33] = test system: Pseudomonas aeruginosa; experiment: Antibacterial activity against Pseudomonas aeruginosa assessed growth inhibition by micro broth dilution method; format: functional
[34] = test system: Staphylococcus aureus; experiment: Antibacterial activity against methicillin-resistant Staphylococcus aureus assessed growth inhibition by micro broth dilution method; format: functional
[35] = test system: Pseudomonas aeruginosa; experiment: Antibacterial activity against Pseudomonas aeruginosa ATCC 27853 assessed growth inhibition by micro broth dilution method; format: functional
[36] = Hemolytic activity in human RBC assessed as hemolytic rate incubated measured upto 64 ug/ml; format: toxicity, cell-based, Erythrocyte; settings: human red blood cells (erythrocytes), up to 64 µg/mL, read-out: Activity
[37] = test system: Klebsiella pneumoniae; experiment: Anti-biofilm activity against Klebsiella pneumonia assessed as relative biofilm clearance rate at 8 times of MIC by crystal violet staining based assay; format: functional
[38] = test system: Staphylococcus aureus; experiment: Anti-biofilm activity against Staphylococcus aureus ATCC 29213 assessed as relative biofilm clearance rate at 8 times of MIC by crystal violet staining based assay; format: functional
[39] = Thermodynamic solubility of the compound in water; format: physicochemical; settings: read-out: Therm_solubility
[40] = test system: Staphylococcus aureus; experiment: Antibacterial activity against Staphylococcus aureus ATCC 29213 assessed as morphological changes by measuring shrunken and cracked cells at 4 times of MIC by SEM microscopic analysis; format: functional, organism-based
[41] = test system: Calf thymus DNA; experiment: Binding affinity to calf thymus DNA assessed as change in absorption by UV-Vis absorption spectra analysis; format: nucleic-acid assay; settings: Bos taurus
[42] = test system: Klebsiella pneumoniae; experiment: Antibacterial activity against Klebsiella pneumonia assessed as morphological changes by measuring shrunken and cracked cells at 4 times of MIC by SEM microscopic analysis; format: functional, organism-based

SMILES | Activity [1] | Activity [4] | Activity [5] | Activity [6] | Activity [7] | Activity [11] | Activity [12] | Activity ([14]; DISRUPTING AGENT) | Activity [15] | MIC [23] [µg/mL] | MIC [24] [µg/mL] | MIC [26] [µg/mL] | MIC [27] [µg/mL] | MIC [28] [µg/mL] | MIC [29] [µg/mL] | MIC [30] [µg/mL] | MIC [32] [µg/mL] | MIC [33] [µg/mL] | MIC [34] [µg/mL] | MIC [35] [µg/mL] | other results
CCOC(=O)c1cn(Cc2ccc(Cl)c(Cl)c2)c2cc(C(C#N)C(=O)OCC)c(F)cc2c1=O (stereo unspecified) | Dose-Dependent Effect | Active | Dose-Dependent Effect | Dose-Dependent Effect | Dose-Dependent Effect | Active | Active | Active | Dose-Dependent Effect |  |  |  |  |  |  |  |  |  |  |  | Activity [2]: Dose-Dependent Effect; Activity [3]: Active; Activity [8]: Dose-Dependent Effect; Activity [9]: Dose-Dependent Effect; Activity [10]: Active; Activity [13]: Active; Activity [16]: Dose-Dependent Effect; Activity [17]: Active; Activity [18]: Active; Activity [19]: Active; Activity [20]: Dose-Dependent Effect; Activity [21]: Dose-Dependent Effect
CCOC(=O)c1cn(Cc2ccc(Cl)cc2Cl)c2cc([C-](C#N)C(=O)OCC)c(F)cc2c1=O.[Na+] (stereo unspecified) |  |  |  |  |  |  |  |  |  | 0.25 | 0.25 | 0.5 | 0.25 | 32 | 0.25 | 1 | 2 | 4 | 16 | 0.5 | Activity [22]: Non-Toxic; Activity [25]: Non-Toxic; viability at 8 ug/ml [31]: 70%
CCOC(=O)C(C#N)c1cc2c(cc1F)c(=O)c(C(=O)O)cn2C1CC1 (stereo unspecified) | Dose-Dependent Effect | Active | Dose-Dependent Effect | Dose-Dependent Effect | Dose-Dependent Effect | Active | Active | Active | Dose-Dependent Effect | 0.5 (≈ 1.4 µM) | 0.25 (≈ 0.698 µM) | 32 (≈ 89.3 µM) | 8 (≈ 22.3 µM) | 0.5 (≈ 1.4 µM) | 0.5 (≈ 1.4 µM) | 64 (≈ 179 µM) | 1 (≈ 2.79 µM) | 16 (≈ 44.7 µM) | 2 (≈ 5.58 µM) | 4 (≈ 11.2 µM) | Activity [22]: Non-Toxic; Activity [17]: Active; Activity [19]: Active; Activity [20]: Dose-Dependent Effect; Activity [21]: Dose-Dependent Effect
CCCCCCCCn1cc(C(=O)OCC)c(=O)c2cc(F)c(C(C#N)C(=O)OCC)cc21 (stereo unspecified) [listing 1 of 2 here] |  |  |  |  |  |  |  |  |  | 0.5 (≈ 1.09 µM) | 0.5 (≈ 1.09 µM) | 2 (≈ 4.36 µM) | 1 (≈ 2.18 µM) | 8 (≈ 17.4 µM) | 2 (≈ 4.36 µM) | 4 (≈ 8.72 µM) | 0.5 (≈ 1.09 µM) | 0.5 (≈ 1.09 µM) | 8 (≈ 17.4 µM) | 0.5 (≈ 1.09 µM) | hemolysis [36]: 50%
CCOC(=O)c1cn(Cc2ccc(Cl)c(Cl)c2)c2cc([C-](C#N)C(=O)OCC)c(F)cc2c1=O.[Na+] (stereo unspecified) |  |  |  |  |  |  |  |  |  | 0.25 | 0.25 | 0.25 | 0.25 | 64 | 0.25 | 1 | 1 | 4 | 8 | 0.5 | Activity [37]: 70%; Activity [38]: 70%; solubility thermodynamic [39]: 97.3 µg/mL
CCCCCCCCn1cc(C(=O)OCC)c(=O)c2cc(F)c(C(C#N)C(=O)OCC)cc21 (stereo unspecified) [listing 2 of 2 here] | Dose-Dependent Effect | Active | Dose-Dependent Effect | Dose-Dependent Effect | Dose-Dependent Effect | Active | Active | Active | Dose-Dependent Effect |  |  |  |  |  |  |  |  |  |  |  | Activity [2]: Dose-Dependent Effect; Activity [3]: Active; Activity [40]: Active; Activity [8]: Dose-Dependent Effect; Activity [9]: Dose-Dependent Effect; Activity [10]: Active; Activity [14]: Active; Activity [16]: Dose-Dependent Effect; Activity [41]: Active; Activity [42]: Active; Activity [17]: Active; Activity [18]: Active; Activity [19]: Active; Activity [20]: Dose-Dependent Effect; Activity [21]: Dose-Dependent Effect
CCOC(=O)c1cn(Cc2ccccc2)c2cc(C(C#N)C(=O)OCC)c(F)cc2c1=O (stereo unspecified) |  |  |  |  |  |  |  |  |  | 2 (≈ 4.58 µM) | 2 (≈ 4.58 µM) | 32 (≈ 73.3 µM) | 2 (≈ 4.58 µM) | 8 (≈ 18.3 µM) | 16 (≈ 36.7 µM) | 16 (≈ 36.7 µM) | 8 (≈ 18.3 µM) | 0.5 (≈ 1.15 µM) | 32 (≈ 73.3 µM) | 2 (≈ 4.58 µM) | 
